The values that follow come from patent US10010529B2, “Extended release pharmaceutical formulations with controlled impurity levels” (Ezra Pharma LLC, priority 2016, dated 2018).

Each structure is given as a SMILES string.

Data set [1] in a line: Compatibility study for valsartan related compound A (Impurity A), 2 weeks 60° C. closed glass vial. Type of data set: physicochemical. On the procedure: Valsartan and valsartan solubilized in molten solubilizers as depicted in tables I and II respectively were subjected to compatibility studies at the following condition: • 2 weeks 60° C. closed glass vial Solubilized valsartan used for the study was prepared by melting the solubiliser/s (Kolliphor P 407, Kolliphor TPGS and combination thereof) in a beaker at water bath temperature 65° C. The drug was mixed with the molten solubiliser/s uniformly at water bath temperature 65° C. and the cooled mass was used in the studies. Levels of Impurity A were evaluated at the tabulated conditions as mentioned in Table III.

For data set [2] the following is noted: in vivo; cited from earlier work.

For the compound `CCCCC(=O)N(Cc1ccc(-c2ccccc2-c2nnn[nH]2)cc1)[C@H](C(=O)O)C(C)C` [Valsartan API, (S)—N-(1-oxopentyl)-N-[[2′-(1H-tetrazol-5-yl) [1,1′-biphenyl]-4-yl]methyl]-L-valine], in data set [1] (2 weeks 60° C., closed glass vial), the “Impurity A level, 2 Weeks 60° C. Closed glass Vial” value came out at 0.05. Further, in data set [1] (conditions of the compatibility study), the “generation of Valsartan R-isomer impurity (Impurity A), in words” value is “not generated”. Moreover, the “Impurity A level, Initial” value in data set [1] (initial) stood at 0.03. The absolute bioavailability result in data set [2] is “about 25%”.
